Structures are written as SMILES.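 In this assay, cells in 96-well plates receive the compound at five concentrations for 48 hours. Endpoints are linearly interpolated between the surrounding concentrations. The concentration for full growth arrest is given as TGI.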 Where only a bound is given, the exact number is not on record here.

Among the test systems are PC-3 prostate; SF-295 CNS; COLO 205 colon; MCF7 breast; MOLT-4 leukemia; RXF 393 renal; HOP-92 NSCLC; KM12 colon; LOX IMVI melanoma; NCI-H522 lung.
Common to all, as to experiment: NCI tumour cell line growth inhibition, 48 h

For `COC(=O)CCc1cc(OC)c2c(c1)[C@H](C(=O)OC)[C@@H](c1ccc(O)c(OC)c1)O2`, the TGI in the assay on PC-3 prostate, in the assay on SF-295 CNS, with COLO 205 colon, with MCF7 breast, in the assay on MOLT-4 leukemia and in the assay on RXF 393 renal was > 100 µM throughout. Besides, the TGI with HOP-92 NSCLC, in the assay on KM12 colon, with LOX IMVI melanoma and in the assay on NCI-H522 lung was > 100 µM each time.
As to `CCCCn1cnc2c(c(CC#N)nn2-c2ccccc2)c1=N`, the TGI in the assay on PC-3 prostate was > 100 µM; with SF-295 CNS it was > 100 µM; in the assay with COLO 205 colon, 92.8 µM; in the assay with MCF7 breast, > 100 µM; with MOLT-4 leukemia, > 100 µM; with RXF 393 renal, > 100 µM. The TGI with HOP-92 NSCLC, with KM12 colon, with LOX IMVI melanoma and in the assay on NCI-H522 lung was > 100 µM each time.
On to `C=CCNC(=S)N=Nc1c(O)[nH]c2ccc([N+](=O)[O-])cc12`, for which the TGI was > 100 µM in the assay on PC-3 prostate; > 100 µM with SF-295 CNS; > 100 µM in the assay on COLO 205 colon; > 100 µM in the assay with MCF7 breast; > 100 µM with MOLT-4 leukemia; 73.3 µM in the assay with RXF 393 renal. The TGI in the assay on HOP-92 NSCLC, in the assay on KM12 colon, with LOX IMVI melanoma and in the assay with NCI-H522 lung was > 100 µM in each case.
In the case of `CC(C)=CCC/C(C)=C/COC(C)(C)C1=CCC(C)CC1` (stereo not drawn) (tested in a mixture with another compound), the TGI in the assay on PC-3 prostate is > 100 µM; in the assay with SF-295 CNS, > 100 µM; in the assay on COLO 205 colon it was > 100 µM; with MCF7 breast it was > 100 µM; in the assay with MOLT-4 leukemia, 36.2 µM; in the assay on RXF 393 renal, > 100 µM. Also, the TGI in the assay with HOP-92 NSCLC, in the assay on KM12 colon and in the assay with NCI-H522 lung was > 100 µM in each case.
With `Cc1cc2c([N+](=O)[O-])cc3c(c2o1)C(=O)C=CC3=O`, the TGI was 30.7 µM in the assay with PC-3 prostate; 23 µM in the assay with SF-295 CNS; 4.88 µM in the assay on COLO 205 colon; 11.2 µM with MCF7 breast; 2.94 µM in the assay on MOLT-4 leukemia; 3.54 µM with RXF 393 renal. In addition, the TGI with HOP-92 NSCLC was 3.22 µM; in the assay on KM12 colon, 32.2 µM; with LOX IMVI melanoma, > 36 µM; with NCI-H522 lung, 3.32 µM.
With `CC(C)(C)OC(=O)NCCC(N)=S`, the TGI with PC-3 prostate, in the assay with SF-295 CNS, in the assay with COLO 205 colon, in the assay with MCF7 breast, with MOLT-4 leukemia and in the assay on RXF 393 renal was > 100 µM throughout. In addition, the TGI in the assay on HOP-92 NSCLC and in the assay on KM12 colon was > 100 µM throughout.
On to `COc1ccc(S(=O)(=O)N2C(=O)CCC2C(=O)NN)cc1` (stereo not drawn), for which the TGI in the assay with PC-3 prostate, in the assay on SF-295 CNS, with COLO 205 colon, in the assay with MCF7 breast, in the assay with MOLT-4 leukemia and in the assay with HOP-92 NSCLC was > 100 µM throughout. The TGI in the assay on KM12 colon, in the assay with LOX IMVI melanoma and with NCI-H522 lung was > 100 µM throughout.
`Clc1ccc(CSCCc2ccncc2)cc1Cl`: the TGI with PC-3 prostate was 45.4 µM; with SF-295 CNS, 41.8 µM; with COLO 205 colon, 27.2 µM; in the assay on MCF7 breast, 35.7 µM; in the assay on MOLT-4 leukemia it was 38.1 µM; in the assay on RXF 393 renal, 61.8 µM. The TGI in the assay with HOP-92 NSCLC came out at 30.4 µM; in the assay with KM12 colon, 50.9 µM; with NCI-H522 lung, 33.8 µM.
Take `O=C1CC(C(O)(C(F)(F)F)C(F)(F)Cl)CCC1C(O)(C(F)(F)F)C(F)(F)Cl` (stereo not drawn): the TGI with PC-3 prostate, in the assay with SF-295 CNS, in the assay with COLO 205 colon, in the assay with MCF7 breast, with MOLT-4 leukemia and in the assay on RXF 393 renal was > 10 µM throughout. In addition, the TGI is 5.09 µM with HOP-92 NSCLC, > 10 µM in the assay with KM12 colon, > 10 µM in the assay with LOX IMVI melanoma and > 10 µM in the assay with NCI-H522 lung.
As for `COC(=O)c1cc2c(cc1CC1Cc3cc4c(cc3C1)CCC4)CCC2`, the TGI is > 100 µM with PC-3 prostate; > 100 µM with SF-295 CNS; > 100 µM with COLO 205 colon; 91.2 µM in the assay with MCF7 breast; 36.9 µM in the assay with MOLT-4 leukemia; > 100 µM in the assay with RXF 393 renal. Further, the TGI was 98.9 µM in the assay on HOP-92 NSCLC, > 100 µM with KM12 colon, 55 µM in the assay on LOX IMVI melanoma and 80 µM in the assay on NCI-H522 lung.
`COc1ccc(-c2c3c([nH]c(=S)c2C#N)CC(C)(C)CC3=O)cc1`: the TGI with PC-3 prostate, in the assay with SF-295 CNS, in the assay with MCF7 breast, in the assay on MOLT-4 leukemia, in the assay on RXF 393 renal and in the assay with HOP-92 NSCLC was > 100 µM each time. The TGI with KM12 colon, with LOX IMVI melanoma and in the assay on NCI-H522 lung was > 100 µM in each case.
Consider `CCOC(=O)c1nc2ccc(C(F)(F)F)cc2nc1Oc1ccc(C#N)cc1`, for which the TGI was 36 µM in the assay on PC-3 prostate; 31.5 µM in the assay on SF-295 CNS; 88.5 µM in the assay on COLO 205 colon; 37.7 µM with MCF7 breast; > 100 µM in the assay on MOLT-4 leukemia; 37.8 µM with RXF 393 renal. The TGI in the assay with HOP-92 NSCLC is 47.2 µM; with KM12 colon it was > 100 µM; in the assay on LOX IMVI melanoma, > 100 µM.
For the compound `Cc1cc(-c2nc3ccccc3s2)ccc1NC(=O)[C@@H](N)CCCCN`, the TGI turned out to be 30.1 µM in the assay with PC-3 prostate; 10.6 µM in the assay on SF-295 CNS; 24.8 µM with COLO 205 colon; 11.7 µM with MCF7 breast; 17.1 µM with MOLT-4 leukemia; 16.5 µM in the assay on RXF 393 renal. Besides, the TGI amounted to 33.3 µM in the assay on HOP-92 NSCLC, 8.03 µM in the assay with KM12 colon, 5.92 µM with LOX IMVI melanoma and 19.2 µM with NCI-H522 lung.

The values above are taken from PubChem BioAssay (NCI).
